Assay results as given in US10174013B2, “Benzimidazole derivatives as kinase inhibitors” (SELVITA S.A., priority 2012, dated 2019).
Read-outs that look alike come from different tables or passages of the source.

Key:
FLT3wt = FLT3wt (Homo sapiens (Human), UniProt P36888); assay: ADP-Glo Kinase Assay, Flt3 wt; type: biochemical; settings: 1 μM compound; for inhibition at 1 µM: read-out: Flt3wt % INH (1 μM)
How it was run: (§1)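 Compounds were diluted in assay buffer to 1000 nM and incubated with kinase, substrate and ATP at apparent Km. Remaining ATP was depleted, ADP converted to ATP and detected by luciferase; percent inhibition came from normalized luminescence.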

Pim-1 = Pim-1 (Homo sapiens (Human), UniProt P11309); assay: ADP-Glo Kinase Assay, Pim-1; type: biochemical; settings: 1 μM compound; for inhibition at 1 µM: read-out: Pim-1 % INH (1 μM)
Pim-1, sequence (P11309 whole entry): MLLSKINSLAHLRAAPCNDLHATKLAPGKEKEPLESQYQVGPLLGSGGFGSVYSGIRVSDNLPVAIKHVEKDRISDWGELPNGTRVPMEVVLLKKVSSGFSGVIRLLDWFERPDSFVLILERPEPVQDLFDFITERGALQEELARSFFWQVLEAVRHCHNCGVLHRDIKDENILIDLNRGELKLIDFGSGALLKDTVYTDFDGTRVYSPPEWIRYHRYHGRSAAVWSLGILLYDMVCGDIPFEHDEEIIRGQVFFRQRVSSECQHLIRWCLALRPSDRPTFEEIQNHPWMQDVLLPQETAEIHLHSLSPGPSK
How it was run: as §1

CDK2/E = CDK2/E (Homo sapiens (Human), UniProt P24941); assay: ADP-Glo Kinase Assay, CDK2/E; type: biochemical; settings: 1 μM compound; for inhibition at 1 µM: read-out: CDK2/E % INH (1 μM)
How it was run: as §1

MOLM13 cells = assay: Growth inhibition, MTS assay, MOLM13; type: cell-based, Human; settings: 72 hours, MTS cell viability, read-out: MOLM 13 ED50
From the text: (§2) The following cell lines, were obtained and used in tests as outlined below: • Human myelomonocytic, biphenotypic leukemia MV4-11 cells (harboring a Flt3-ITD mutation); • Human Acute Myeloid Leukemia MOLM16 cells; • Human Acute Myeloid Leukemia MOLM13 cells (harboring a Flt3-ITD mutation); • Human Myeloid Leukemia KG-1 cells; • Human erythroleukemia HEL92 cells; • Human mantle cell lymphoma Jeko-1 cells; • Human hepatocellular carcinoma HepG2 cells; and • Human colon adenocarcinoma SW-480 cells.
(§3) The assays were carried out according to the following protocol, which is described as an example for the MV4-11 cells:
(§4) Ten thousand MV4-11 cells were inoculated into each well of a 96-well microplate (manufactured by Corning Corp.) using Iscove's MDM medium (culture medium) containing 10% fetal calf serum (FCS). The same day, a dimethyl sulfoxide (DMSO) solution of each test compound prepared in a concentration of 10 mmol/L was further diluted with DMSO to the desired concentrations (0.1, 0.5, 1, 2.5, 5 and 10 micromol/L), and the diluted solution was added to each well. The individual wells were further cultured in 5% carbon dioxide at 37° C. for 72 hours. […] Briefly, 10 μl MTS (3-(4,5-Dimethyl-2-thiazolyl)-5-(carboxymethoxyphenyl)-2-(4-sulfophenyl)-2H-tetrazolium was added to each well, and culturing was performed in 5% carbon dioxide at 37° C. for 2 hours. After this incubation and using a microplate spectrophotometer (Synergy 2 multi-mode microplate reader (BioTek)), the absorbance of each well was measured at 490 nm. The value for cells not incubated with a test compound was designated as 100%. By comparing these values with the absorbance difference obtained at the well in which each test compound was added, the cell viability (% viability) after treatment with the test compound was calculated.

MV4-11 cells = assay: Growth inhibition, MTS assay, MV4-11; type: cell-based, Human; settings: MTS cell viability, read-out: MV4-11 ED50
DYRK1 = DYRK1 (Homo sapiens (Human), UniProt Q13627); assay: ADP-Glo Kinase Assay, DYRK1; type: biochemical; settings: 1 μM compound; for inhibition at 1 µM: read-out: DYRK1A % INH (1 μM)
How it was run: as §1

KG-1 cells = assay: Growth inhibition, MTS assay, KG-1; type: cell-based, Human; settings: 72 hours, MTS cell viability
From the text: as §2, §3, §4

MOLM16 cells = assay: Growth inhibition, MTS assay, MOLM16; type: cell-based, Human; settings: Homo sapiens, MOLM16, 72 h, MTS cell viability, read-out: MOLM 16 ED50
From the text: as §2, §3, §4

HepG2 cells = assay: Growth inhibition, MTS assay, HepG2; type: cell-based, Human; settings: MTS cell viability, read-out: HepG2 ED50
Pim-2 = Pim-2 (Homo sapiens (Human), UniProt Q9P1W9); assay: ADP-Glo Kinase Assay, Pim-2; type: biochemical; settings: 1 μM compound; for inhibition at 1 µM: read-out: Pim-2 % INH (1 μM)
Pim-2, sequence (Q9P1W9 whole entry): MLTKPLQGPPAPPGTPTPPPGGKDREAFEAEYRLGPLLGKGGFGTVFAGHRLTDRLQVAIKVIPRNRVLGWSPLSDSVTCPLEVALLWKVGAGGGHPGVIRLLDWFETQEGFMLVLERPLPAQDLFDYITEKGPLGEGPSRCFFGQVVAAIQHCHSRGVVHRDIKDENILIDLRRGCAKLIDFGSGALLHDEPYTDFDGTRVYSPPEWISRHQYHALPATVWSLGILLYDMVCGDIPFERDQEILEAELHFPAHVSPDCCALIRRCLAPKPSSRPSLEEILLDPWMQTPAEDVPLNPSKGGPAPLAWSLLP
How it was run: as §1

HEL92 cells = assay: Growth inhibition, MTS assay, HEL92; type: cell-based, Human; settings: MTS cell viability, read-out: HEL92 ED50
Jeko-1 cells = assay: Growth inhibition, MTS assay, Jeko-1; type: cell-based, Human; settings: 72 hours, MTS cell viability, read-out: Jeko-1 ED50
Pim-3 = Pim-3 (Homo sapiens (Human), UniProt Q86V86); assay: ADP-Glo Kinase Assay, Pim-3; type: biochemical; settings: 1 μM compound
How it was run: as §1

CYP3A4 = CYP3A4 (Homo sapiens (Human), UniProt P08684); assay: Cytochrome P450 inhibition, fluorescence, CYP3A4; type: in vitro ADME; settings: recombinant CYP3A4, fluorescence detection; read-out: CYP inhibition (CYP 3A4 screening, IC50 class)
CYP3A4, sequence (P08684 whole entry, canonical isoform): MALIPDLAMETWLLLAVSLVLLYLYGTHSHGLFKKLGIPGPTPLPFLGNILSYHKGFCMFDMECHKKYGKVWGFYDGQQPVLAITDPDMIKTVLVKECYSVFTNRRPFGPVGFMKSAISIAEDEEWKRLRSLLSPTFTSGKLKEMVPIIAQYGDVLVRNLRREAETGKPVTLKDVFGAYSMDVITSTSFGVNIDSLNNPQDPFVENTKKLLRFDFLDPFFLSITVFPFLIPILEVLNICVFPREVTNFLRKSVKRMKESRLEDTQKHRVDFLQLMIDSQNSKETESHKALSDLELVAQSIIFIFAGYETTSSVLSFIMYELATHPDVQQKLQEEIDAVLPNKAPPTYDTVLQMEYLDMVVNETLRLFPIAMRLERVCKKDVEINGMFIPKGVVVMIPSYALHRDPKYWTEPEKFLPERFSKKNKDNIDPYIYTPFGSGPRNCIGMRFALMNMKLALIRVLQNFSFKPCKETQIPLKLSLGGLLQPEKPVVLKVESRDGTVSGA
Method: The assays for cytochrome P450 inhibition facilitate the identification of drug candidates with lower potential for drug-drug interactions (weak enzymes inhibitors). In vitro experiments were conducted to determine whether a drug inhibits a specific CYP enzyme. The experiments comprised the incubation of the drug with probe substrates for the CYP enzymes, wherein the following recombinant cytochrome P450 isoforms were employed: CYP1A2, CYP2C8, CYP2C9, CYP2C19, CYP2D6 and CYP3A4, together with various probe substrates enabling fluorescence detection. The protocol uses a single substrate concentration near the apparent Km and multiple compound concentrations.
The assay was performed in 96-well microtiter plates. The row designations were A through H and the column designations were 1 through 12. […] Each compound (see Table 6 for tested compounds) was added to the wells in column 1 and serially diluted to the wells in column 8. Wells 9 and 10 were control wells which contained no test compound (therefore no inhibition-full signal is detected.) The wells in columns 11 and 12 were blanks, where STOP solution was added prior to the addition of the enzyme/substrate mix to the NADPH regenerating system (the only signal present in these wells is background noise.) The assay was conducted in a final volume of 0.2 ml per well.
The stock solutions of the tested compounds were prepared in DMSO at 10 mM concentration. […] After mixing the compounds with solution containing NADPH-cofactors, the mixed plate was preincubated in a 37° C. incubator for at least 10 minutes; next, the fluorescence of compounds using recommended excitation/emission filters was measured in order to eliminate false results originating from autofluorescence of the compounds. In the following step, the enzyme/substrate mix was added to columns 1 through 10 and the plates were incubated at 37° C. for specific times depending on the CYP tested (incubation times ranged from 30 to 45 minutes). After adding STOP SOLUTION to all wells and respective enzyme/substrate mix to the wells in columns 11 and 12, the plate was scanned with a fluorescent plate scanner. The excitation/emission filters used for the specific assays are described in the GenTest Screening Kit instruction manual.

hERG potassium channel = hERG potassium channel (Homo sapiens (Human), UniProt Q12809); assay: hERG automated patch clamp assay (QPatch HT)
hERG potassium channel, sequence (Q12809 whole entry): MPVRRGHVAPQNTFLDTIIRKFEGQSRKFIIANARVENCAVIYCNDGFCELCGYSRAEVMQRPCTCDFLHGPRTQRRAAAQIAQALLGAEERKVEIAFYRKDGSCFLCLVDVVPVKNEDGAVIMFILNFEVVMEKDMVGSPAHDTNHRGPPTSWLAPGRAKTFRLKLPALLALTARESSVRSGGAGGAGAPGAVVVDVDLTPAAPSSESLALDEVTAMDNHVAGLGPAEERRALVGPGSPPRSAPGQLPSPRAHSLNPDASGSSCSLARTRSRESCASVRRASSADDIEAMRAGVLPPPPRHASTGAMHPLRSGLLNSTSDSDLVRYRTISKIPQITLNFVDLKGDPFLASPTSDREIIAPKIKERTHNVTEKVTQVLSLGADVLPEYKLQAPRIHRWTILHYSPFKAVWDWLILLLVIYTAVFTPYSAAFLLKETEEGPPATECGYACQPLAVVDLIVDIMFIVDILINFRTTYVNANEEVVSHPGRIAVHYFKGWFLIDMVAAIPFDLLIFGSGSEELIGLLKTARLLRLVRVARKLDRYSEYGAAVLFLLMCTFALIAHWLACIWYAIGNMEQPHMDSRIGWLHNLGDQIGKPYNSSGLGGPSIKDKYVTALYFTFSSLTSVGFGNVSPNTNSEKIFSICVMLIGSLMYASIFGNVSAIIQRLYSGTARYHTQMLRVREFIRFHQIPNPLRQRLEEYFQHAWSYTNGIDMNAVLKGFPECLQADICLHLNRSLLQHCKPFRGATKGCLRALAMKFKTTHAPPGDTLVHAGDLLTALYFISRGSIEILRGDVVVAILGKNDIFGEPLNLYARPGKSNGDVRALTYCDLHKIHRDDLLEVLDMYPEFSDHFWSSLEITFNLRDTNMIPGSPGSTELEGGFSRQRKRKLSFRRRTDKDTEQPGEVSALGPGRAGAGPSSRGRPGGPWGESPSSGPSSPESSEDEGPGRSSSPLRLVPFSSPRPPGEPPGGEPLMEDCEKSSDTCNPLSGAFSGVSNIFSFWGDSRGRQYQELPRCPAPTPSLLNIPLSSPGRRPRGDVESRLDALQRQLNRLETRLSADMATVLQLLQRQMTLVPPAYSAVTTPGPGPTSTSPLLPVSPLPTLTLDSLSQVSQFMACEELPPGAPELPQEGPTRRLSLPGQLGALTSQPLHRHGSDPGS
How it was run: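 Automated whole-cell patch clamp of hERG current in mammalian cells at room temperature. Compounds applied at 0.1, 1, 3, 10 and 30 μM, 3 min per concentration, n≥2 cells each.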

FLT3wt, sequence (P36888 27-993): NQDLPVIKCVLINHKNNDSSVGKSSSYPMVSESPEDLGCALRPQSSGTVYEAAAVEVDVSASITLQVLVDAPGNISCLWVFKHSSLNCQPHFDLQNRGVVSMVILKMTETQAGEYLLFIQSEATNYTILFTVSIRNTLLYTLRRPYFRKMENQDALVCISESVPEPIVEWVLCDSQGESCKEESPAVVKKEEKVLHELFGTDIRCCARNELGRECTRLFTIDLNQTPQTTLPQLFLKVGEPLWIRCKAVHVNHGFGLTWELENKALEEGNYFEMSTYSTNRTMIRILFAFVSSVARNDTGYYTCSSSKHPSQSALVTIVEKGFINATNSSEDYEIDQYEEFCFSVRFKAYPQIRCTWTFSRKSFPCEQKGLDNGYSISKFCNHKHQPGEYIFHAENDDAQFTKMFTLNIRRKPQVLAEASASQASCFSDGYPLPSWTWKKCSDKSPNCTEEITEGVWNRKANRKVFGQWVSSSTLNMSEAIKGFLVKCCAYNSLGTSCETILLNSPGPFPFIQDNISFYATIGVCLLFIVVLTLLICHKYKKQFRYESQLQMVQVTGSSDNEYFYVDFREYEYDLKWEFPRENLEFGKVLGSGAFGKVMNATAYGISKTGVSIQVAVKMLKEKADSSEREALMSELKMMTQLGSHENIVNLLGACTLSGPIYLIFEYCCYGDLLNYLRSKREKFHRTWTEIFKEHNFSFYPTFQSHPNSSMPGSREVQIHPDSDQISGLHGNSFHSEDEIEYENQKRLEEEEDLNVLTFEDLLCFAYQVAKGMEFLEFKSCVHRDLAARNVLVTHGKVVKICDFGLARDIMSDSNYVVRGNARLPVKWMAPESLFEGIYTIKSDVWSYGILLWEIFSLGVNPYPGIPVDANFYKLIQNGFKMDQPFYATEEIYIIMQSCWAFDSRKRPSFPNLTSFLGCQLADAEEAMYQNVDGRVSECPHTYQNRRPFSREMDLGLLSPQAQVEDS

| Compound | inhibition at 1 µM (FLT3wt) [%] | inhibition at 1 µM (Pim-1) [%] | inhibition at 1 µM (CDK2/E) [%] | IC50 (MOLM13 cells; Homo sapiens, MOLM-13) [nM] | IC50 (MV4-11 cells; Homo sapiens, MV4-11, 72 h) [nM] | inhibition at 1 µM (DYRK1) [%] | KG-1 ED50 (KG-1 cells) [nM] | IC50 (MOLM16 cells) [nM] | IC50 (HepG2 cells; Homo sapiens, HepG2, 72 h) [nM] | inhibition at 1 µM (Pim-2) [%] | IC50 (HEL92 cells; Homo sapiens, 72 h) [nM] | IC50 (Jeko-1 cells; Homo sapiens, JeKo-1) [nM] | Flt3wt % INH (1 μM) (FLT3wt) [%] | Pim-1 % INH (1 μM) (Pim-1) [%] | CDK2/E % INH (1 μM) (CDK2/E) [%] | IC50 (MOLM13 cells) [nM] | IC50 (MV4-11 cells; 72 hours) [nM] | DYRK1A % INH (1 μM) (DYRK1) [%] | IC50 (HepG2 cells; 72 hours) [nM] | Pim-2 % INH (1 μM) (Pim-2) [%] | further results |
| --- | --- | --- | --- | --- | --- | --- | --- | --- | --- | --- | --- | --- | --- | --- | --- | --- | --- | --- | --- | --- | --- |
| CCn1c(N2CCC(N)CC2)nc2c(C#N)c(Br)c(Br)cc21 [Example 1DS] | 8 | > 95 | 47 | 9900 | 800 | 23 | 200 | 320 | 600 | 54 | 5800 | 1400 | – | – | – | – | – | – | – | – | – |
| COCCn1c(N2CCNCC2)nc2c([N+](=O)[O-])c(Br)c(Br)cc21 [Example 1BB] | – | – | – | – | – | – | – | – | – | – | – | – | 33 | >95 | 29 | 3000 | 700 | 61 | 2000 | 12 | IC50 (HEL92 cells; 72 hours): 5400 nM; Pim-3 % INH (1 μM) (Pim-3): 65% |
| CC(C)n1c(N[C@H]2CCNC2)nc2c([N+](=O)[O-])c(Br)c(Br)cc21 [Example 1BD] | – | – | – | – | – | – | – | – | – | – | – | – | 28 | >95 | <5 | 2100 | 700 | 53 | 3300 | 65 | IC50 (CYP3A4): > 10000 nM; IC50 (hERG potassium channel): 4340 nM; IC50 (HEL92 cells; 72 hours): 5500 nM; IC50 (Jeko-1 cells): 1600 nM; Pim-3 % INH (1 μM) (Pim-3): 88% |
| CCn1c(N2CCC[C@H](N)C2)nc2c(C#N)c(Br)c(Br)cc21 [Example 1DQ] | < 5 | > 95 | < 5 | 2800 | 900 | 38 | 500 | 100 | 1400 | 53 | 7600 | 1600 | – | – | – | – | – | – | – | – | inhibition at 1 µM (Pim-3; read-out: Pim-3 % INH (1 μM)): 86% |
